Holding throughout (experiment): NCI-60 cell line screen, 48 h
The test system of assay [1] is SF-539 CNS.
Assay [2] relates to HCT-15 colon.
Assay [3] relates to HOP-92 NSCLC.
Assay [4] concerns OVCAR-5 ovarian.
Assay [5] has as its system HL-60(TB) leukemia.
Assay [6] relates to SK-OV-3 ovarian.
Assay [7] relates to HOP-62 NSCLC.
The test system of assay [8] is A498 renal.
In assay [9] the test system is SF-268 CNS.
Assay [10] concerns SN12C renal.

Several values for one entry are separate records, joined by “and”; a condition that tells them apart may be missing. Identical values can stand only once.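 Assay format: 96-well plates, 48-hour exposure. GI50 marks 50% less growth. Definition used: TGI = concentration required for complete inhibition of growth.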 Some results are limits rather than exact numbers.

As to `Cc1cccc2c(=O)c3c(sc12)c(NCCN)nc1ccccc13`, the GI50 is 0.917 µM in assay [1]; 0.821 µM in [2]; 0.691 µM in [3]; 0.834 µM in assay [4]; 0.864 µM in assay [5]; 3.17 µM in [6]. For the same compound, the GI50 in assay [7] is 0.728 µM; in [8], 2.72 µM; in assay [9] it was 1.18 µM; in [10], 0.754 µM. Moreover, the TGI in [1] was found to be 1.77 µM; in [2], 1.58 µM; in [3], 2.45 µM; in [4], 1.6 µM; in assay [5], 1.74 µM; in assay [6] it was 9.9 µM. Moreover, the TGI in [7] was 1.65 µM; in assay [8], 6.92 µM; in [9], 3.88 µM; in assay [10], 1.54 µM.

As to `CC(=O)O[C@@H]1CC(=O)O[C@@H]2C[C@@H](CC/C(Cl)=C/C/C=C\1C)O[C@@H]2CO`, the GI50 in [1], in assay [2], in [3], in [4], in assay [5] and in [6] was more than 25 µM in each case. Also, the GI50 in assay [7] is more than 25 µM; in [8], 20.1 µM; in assay [9], more than 25 µM; in assay [10], more than 25 µM. Further, the TGI in [1], in assay [2], in assay [3], in assay [4], in assay [5] and in assay [6] was more than 25 µM throughout. Moreover, the TGI in [7], in [8], in [9] and in assay [10] was more than 25 µM each time.

As for `CCOC(=O)C1=C(N)Oc2cc(OC)ccc2C1c1ccc(F)c(F)c1` (configuration not stated), the GI50 was 2.13 µM in assay [1]; 0.503 µM in [2]; 3.54 µM in assay [3]; 10.5 µM in assay [4]; 0.404 µM in assay [5]; 3.66 µM in assay [6]. The GI50 in assay [7] was 2.13 µM; in [8] it was 1.29 µM; in [9] it was 8.56 µM; in assay [10], 4.97 µM. Also, the TGI in [1] was determined as 8.3 µM; in assay [2] it was 14.3 µM; in assay [3], 19.4 µM; in assay [4], 24.1 µM; in assay [5] it was 4.8 µM; in assay [6], 16.4 µM. For the same compound, the TGI in assay [7] came to 19.4 µM; in [8] it was 11.9 µM; in [9], 23.5 µM; in assay [10] it was 19.5 µM.

With `O=C(Nc1ccc(Cl)cc1Cl)/C(Cl)=C1/Sc2ccccc2NC1=O`, the TGI is more than 100 µM in [1]; more than 100 µM in assay [2]; 51.6 µM in [3]; more than 100 µM in assay [4]; 53.8 µM in assay [5]; 80.4 µM in assay [6]. In addition, the TGI in assay [7], in [8], in [9] and in assay [10] was more than 100 µM throughout.

As for `O=C(CCc1cc(-c2ccco2)n(-c2ccc([N+](=O)[O-])cc2[N+](=O)[O-])n1)Nc1ccccc1`, the TGI in assay [1], in assay [2], in assay [3], in assay [4], in assay [5] and in assay [6] was more than 100 µM each time. The TGI in assay [7], in assay [8], in assay [9] and in [10] was more than 100 µM in each case.

In the case of `COC(=O)C12OCC34C(CC5C(C)=CC(=O)C(O)C5(C)C3C(O)C1O)OC(=O)C(OC(=O)CC(C)C)C24` (configuration not stated), the GI50 in assay [1] was less than 0.034 µM; in assay [2] it was 0.0565 µM and 0.05 µM; in assay [3] it was 0.0442 µM and 0.05 µM; in assay [4], 0.0825 µM and 0.0586 µM; in assay [5] it was < 0.0417 µM and 0.05 µM; in [6], 0.3 µM and 0.05 µM. Further, the GI50 was 0.0439 µM and 0.05 µM in assay [7]; less than 0.0575 µM in [8]; 0.0671 µM and 0.05 µM in assay [9]; 0.0829 µM and 0.05 µM in assay [10]. Also, the TGI was 0.0174 µM and 0.119 µM and 0.0651 µM in assay [3]; 0.00627 µM and < 0.0791 µM in [8].

Regarding `Cc1ccc(S(=O)(=O)N2C/C(=C\c3cc(F)cc(F)c3)C(=O)/C(=C/c3cc(F)cc(F)c3)C2)cc1`, the GI50 in assay [1] is 0.71 µM; in [2], 0.22 µM; in [3], 1.1 µM; in assay [4], 0.713 µM; in assay [5], 0.243 µM; in assay [6], 2.3 µM. Also, the GI50 was 1.5 µM in assay [7], 1.57 µM in [8], 0.347 µM in assay [9] and 0.272 µM in [10]. Moreover, the TGI worked out at 2.16 µM in assay [1]; 0.966 µM in assay [2]; 3.17 µM in assay [3]; 2.28 µM in assay [4]; 1.05 µM in assay [5]; 7.53 µM in [6]. Moreover, the TGI stood at 4.66 µM in assay [7], 3.41 µM in assay [8], 1.31 µM in assay [9] and 0.861 µM in assay [10].

For `NNc1nc(-c2ccccn2)nc2sc3c(c12)CCCCCC3`, the GI50 in [1] is 10.9 µM; in assay [2] it was 1.12 µM; in assay [3], 3.54 µM; in [4] it was 8.61 µM; in assay [5], 4.46 µM; in assay [6], 30.9 µM. Moreover, the GI50 was 8.57 µM in assay [7], 1.86 µM in assay [8], 7.25 µM in [9] and 6.36 µM in assay [10]. The TGI in assay [1] is more than 100 µM; in [2] it was more than 100 µM; in [3] it was 48.6 µM; in assay [4], more than 100 µM; in assay [5] it was 36.3 µM; in assay [6] it was more than 100 µM. Also, the TGI in [7] was more than 100 µM; in [8], 11.8 µM; in assay [9] it was more than 100 µM; in [10], more than 100 µM.

In the case of `[O-][N+]1=C(c2ccccc2)COc2ccccc21`, the TGI in [1], in assay [2], in assay [3], in assay [4], in [5] and in assay [6] was more than 100 µM in each case. Further, the TGI in assay [7], in assay [8], in [9] and in assay [10] was more than 100 µM each time.

With `CNC(=S)N/N=C(/C)CCC/C(C)=N/NC(=S)NC`, the TGI in assay [1], in assay [2], in assay [3], in [4], in [5] and in [6] was more than 100 µM throughout. Further, the TGI was more than 100 µM in [7], more than 100 µM in assay [8], more than 88.7 µM in assay [9] and more than 100 µM in [10].

On to `COc1ccc2cc(C(=O)/C=C/c3ccccc3OC)ccc2c1`, for which the GI50 in [1] was 1.72 µM; in assay [2] it was 1.67 µM; in [3] it was more than 22.6 µM; in [4] it was 18.4 µM; in assay [5], 2.55 µM; in assay [6] it was 12.7 µM. For the same compound, the GI50 in [7] is 7.51 µM; in assay [8], 6.45 µM; in assay [9] it was more than 20.6 µM; in assay [10] it was 1.97 µM. For the same compound, the TGI is 4.6 µM in [1]; 14.3 µM in [2]; more than 50.4 µM in [3]; 49.7 µM in [4]; 8.14 µM in assay [5]; more than 100 µM in assay [6]. Moreover, the TGI in [7] was 25.6 µM; in assay [8], 30.7 µM; in [9], more than 100 µM; in assay [10], 6.82 µM.

Consider `C=C1CCC2C(C)(CO)C(O)CCC2(C)C1CC(O)C1=CCOC1=O` (configuration not stated), for which the TGI is 55 µM in assay [1]; more than 100 µM in assay [2]; more than 100 µM in assay [3]; more than 100 µM in [4]; 85.9 µM in assay [5]; more than 100 µM in assay [6]. For the same compound, the TGI in assay [7], in assay [8], in assay [9] and in assay [10] was more than 100 µM in each case.

Take `O=CN/C=C/c1ccccc1O`: the TGI in [1], in [2], in assay [3], in assay [4], in assay [5] and in assay [6] was more than 100 µM in each case. The TGI in [7], in [8], in assay [9] and in [10] was more than 100 µM each time.

On to `O=C(O)C#Cc1ccc([N+](=O)[O-])cc1`, for which the TGI in assay [1], in assay [2], in assay [3], in assay [4], in assay [5] and in assay [6] was more than 100 µM in each case. Further, the TGI in assay [7], in assay [8], in [9] and in assay [10] was more than 100 µM throughout.

These data come from PubChem BioAssay (NCI).
